Source: patent US9550989B2, “Rational design of microRNA-siRNA chimeras for multi-functional target suppression” (Washington University, priority 2013, dated 2017)

What was measured:
Type in all cases: cell-based, human
HeLa cells = test: Transwell migration assay; details: transwell migration; for promotion of cell motility as compared to the negative control: increase by %; for cell mobility on average as compared to the control: increased to % of control
Protocol: (A) Transwell migration assays to assess changes in cell motility. (B) MTS assays to assess changes in cell proliferation.
(§1) FIG. 7 depicts images and graphs showing functional characterization of aiR-9 on cell motility and cell death. […] One representative microscope image from each assay is presented here. (B) Impact of aiR-9 on cell death. TP53 deficiency renders HCT116 cells resistance to cisplatin-induced cell death. HCT116 cells and HCT116 p53^−/− cells were treated with cisplatin (50 μM) and cell death was determined as sub-G1 population by flow cytometry analysis after DNA PI staining. Furthermore, HCT116 cells were transfected with negative control RNA, aiR-9-2 or miR-9 individually followed by cisplatin treatment, and then analyzed by flow cytometry for cell death with PI staining.
Cultured cells were resuspended and washed with PBS buffer. Fifty thousand cells in 100 μL serum-free medium were added to the upper chamber of each Transwell (24-well insert with 8 um pore size from Costar). The lower chamber was filled with 600 μL medium containing 10% bovine serum. Cells were incubated for 6 h and cells on top of the membrane were removed with a cotton-tipped swab. Cells that had migrated through the membrane were fixed and stained with Hema-3 (Fisher Scientific) for counting.

TP53 = test: Real-time RT-PCR of target mRNA; details: HeLa cells
Text: FIG. 6 depicts sequences and a graph showing design and validation of aiRNA-9. (A) Sequences of three aiR-9 RNAs. […] The seed regions are underlined.

HCT116 cells = test: Flow cytometry of cisplatin-induced cell death (sub-G1, PI staining); details: cisplatin 50 μM
Protocol: as §1
HCT116 and HCT116 p53^−/− cells were cultured in DMEM with 10% FBS. Cisplatin, DNase-free RNase and Propidum Iodide (PI) were purchased from Sigma. After treatment with cisplatin (50 μM), all cells (both floating and attached) were collected, washed once with DPBS, and then fixed with 70% ethanol on ice for at least 30 minutes. Fixed cells were washed twice with DPBS and then stained with PI solution [PI (25 μg/ml) and DNase-free RNase (100 μg/ml) diluted in PBS] at room temperature for 1 hour avoiding light exposure. Data were acquired by BD Aris FACS and analyzed using Flowing Software 2 version 2.5.0 (Finland).

Substance	promotion of cell motility as compared to the negative control (HeLa cells) [%]	cell mobility on average as compared to the control (HeLa cells) [%]	suppression of TP53 expression (TP53)	cisplatin-induced cell death (sub-G1 cell population) (HCT116 cells)
miR-9: natural miRNA, SEQ ID NO:9 UCUUUGGUUAUCUAGCUGUAUGA (listed as RNA, chemistry not given here) [reference compound]	44	144	–	–
aiR-9-2: aiRNA with miR-9 seed and TP53 siRNA homology, SEQ ID NO:11 UCUUUGGUUGGGGAGAGGAGC (listed as RNA, chemistry not given here)	57	157	effectively suppress	drastic suppression of cisplatin-induced cell death
